The target in series [1] is Lysosomal acid glucosylceramidase (Homo sapiens, UniProt P04062). Nature of the series: Dose response cell-based high throughput screening assay to identify enhancers of beta-glucosidase activity. [Related pubchem assays: 784 ]. It is filed as functional.
Series [2] addresses Cytochrome P450 2C19 (Homo sapiens, UniProt P33261). Nature of the series: Cytochrome panel assay with activity outcomes. Panel member name: p450-cyp2c19 Compounds with AC50 equal or less than 10 uM are considered active. Type of series: functional.
In series [3] the target is Cytochrome P450 2D6 (Homo sapiens, UniProt P10635).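 Also: CYP2D6 member of a cytochrome P450 panel assay.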
Series [4] concerns the target Cytochrome P450 2C9 (Homo sapiens, UniProt P11712).
For series [5], the target named is Metabotropic glutamate receptor 4 (Rattus norvegicus, UniProt P31423). Nature of the series: Modulation of the Metabotropic Glutamate Receptor mGluR4: Rat PAM Potency. [Related pubchem assays (depositor defined):AID2437, AID2807]. Type of series: functional.
The nature of series [6]: inhibitors of firefly luciferase expression or activity, dose response, H4 neuroglioma cells, luminescence (AID 1990). It is filed as functional, cell-based.
A short description of series [7]: luciferase reporter signal reduction – luminescence, H4-C neuroglioblastoma cells, dose response (AID 2458).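 Also: H4 neuroglioblastoma cells stably carrying a luciferase reporter gene fusion.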 Type of series: functional, cell-based.
For series [8], the system named is BJ. Nature of the series: cytotoxicity toward BJ-TERT fibroblasts, dose response, cell-based, RAS-independent, luminescence (AID 1933). It is filed as functional. The settings on record: Homo sapiens.
A short description of series [9]: cells. It is filed as functional, cell-based.
Series [10] can be described thus: Luminescence Cell-Based Dose Response HTS to Identify Inhibitors of 5'UTR Stem-Loop Driven Prion Protein mRNA Translation in H4 Neuroglioblastoma Cells. [Related pubchem assays: 1827 (Project Summary), 1813 (Primary HTS)]. Type of series: functional.
Series [11] is described as follows: inhibitors of SNCA 5'UTR-driven reporter translation, confirmation, H4 neuroglioma cells, luminescence (AID 1988). Type of series: functional, cell-based.
The test system of series [12] is BJ. Nature of the series: cells. It is filed as functional, cell-based. Conditions: Homo sapiens.
Series [13] in a line: Luminescence-based dose response cell-based high throughput screening assay for cytotoxic compounds using the IEC-6 intestinal epithelial cell line. [Related pubchem assays: 1858 (Summary AID.), 1825 (Counterscreen.), 1907 (Confirmation screen.)]. It is filed as functional.
Series [14] has as its system BJ. Nature of the series: cytotoxicity toward BJ-TERT-LT-ST fibroblasts, dose response, cell-based, RAS-independent, luminescence (AID 1935).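 Also: BJ fibroblasts immortalized with TERT plus LT and ST oncogenes.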 It is filed as functional. The settings on record: Homo sapiens.
Series [15] is described as follows: cytotoxicity toward DRD oncogenic fibroblasts, dose response, cell-based, non-viral oncogenic, luminescence (AID 1934). It is filed as functional. The settings on record: Homo sapiens.
Series [16] is described as follows: inhibitors of SNCA 5'UTR-driven translation, confirmation, luminescence, H4 neuroglioblastoma cells, dose confirmation (AID 2454).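 Also: H4 neuroglioblastoma cells carrying an alpha-synuclein 5'UTR luciferase reporter; potency for inhibition of the luciferase signal.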 It is filed as functional, cell-based.
Series [17] concerns the target Transitional endoplasmic reticulum ATPase (Homo sapiens, UniProt P55072, C522A). Nature of the series: C522A mutant p97 ATPase inhibitors, dose response, counter-screen for p97 inhibitor project, biochemical, luminescence (AID 1544).
Series [18] concerns the target Transitional endoplasmic reticulum ATPase (Homo sapiens, UniProt P55072). Nature of the series: p97 ATPase inhibitors, dose response, biochemical (AID 1534).
Series [19] addresses Induced myeloid leukemia cell differentiation protein Mcl-1 (Homo sapiens, UniProt Q07820). Type of series: functional.
For series [20], the target named is Troponin, cardiac muscle (Homo sapiens, UniProt P19429+P45379+P63316). Nature of the series: inhibitors of cardiac thin filament calcium sensitivity, dose response, biochemical, fluorescence, cardiac regulated thin filaments, triplicate IC50 (AID 504742). Type of series: protein-complex assay.

Activity calls are given as the source filed them. A value given as a limit tells only on which side of the number the result lay.

Chain of Transitional endoplasmic reticulum ATPase (Homo sapiens, UniProt P55072, C522A) (P55072 2-806 C522A limits assumed): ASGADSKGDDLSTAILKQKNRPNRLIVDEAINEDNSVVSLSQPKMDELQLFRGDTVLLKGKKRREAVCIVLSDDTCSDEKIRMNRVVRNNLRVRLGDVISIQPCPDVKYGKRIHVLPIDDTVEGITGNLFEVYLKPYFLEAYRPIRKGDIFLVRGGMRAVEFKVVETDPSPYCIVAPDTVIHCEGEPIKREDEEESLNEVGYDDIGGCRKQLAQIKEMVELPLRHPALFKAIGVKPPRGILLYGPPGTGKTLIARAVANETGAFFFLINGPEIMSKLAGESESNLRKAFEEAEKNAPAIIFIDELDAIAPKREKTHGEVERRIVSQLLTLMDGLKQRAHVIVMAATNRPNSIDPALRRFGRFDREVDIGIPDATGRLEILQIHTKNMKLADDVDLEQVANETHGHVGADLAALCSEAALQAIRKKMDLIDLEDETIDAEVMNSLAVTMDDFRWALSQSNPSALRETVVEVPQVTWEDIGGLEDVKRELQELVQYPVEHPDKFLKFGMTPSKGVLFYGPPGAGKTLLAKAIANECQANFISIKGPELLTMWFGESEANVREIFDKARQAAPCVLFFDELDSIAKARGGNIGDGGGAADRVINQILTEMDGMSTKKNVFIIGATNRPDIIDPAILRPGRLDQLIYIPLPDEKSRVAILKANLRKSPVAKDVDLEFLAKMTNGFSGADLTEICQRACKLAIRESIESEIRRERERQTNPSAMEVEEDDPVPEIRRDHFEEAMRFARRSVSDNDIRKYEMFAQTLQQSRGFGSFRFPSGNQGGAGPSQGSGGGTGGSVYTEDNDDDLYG
Chain of Metabotropic glutamate receptor 4 (P31423 whole entry): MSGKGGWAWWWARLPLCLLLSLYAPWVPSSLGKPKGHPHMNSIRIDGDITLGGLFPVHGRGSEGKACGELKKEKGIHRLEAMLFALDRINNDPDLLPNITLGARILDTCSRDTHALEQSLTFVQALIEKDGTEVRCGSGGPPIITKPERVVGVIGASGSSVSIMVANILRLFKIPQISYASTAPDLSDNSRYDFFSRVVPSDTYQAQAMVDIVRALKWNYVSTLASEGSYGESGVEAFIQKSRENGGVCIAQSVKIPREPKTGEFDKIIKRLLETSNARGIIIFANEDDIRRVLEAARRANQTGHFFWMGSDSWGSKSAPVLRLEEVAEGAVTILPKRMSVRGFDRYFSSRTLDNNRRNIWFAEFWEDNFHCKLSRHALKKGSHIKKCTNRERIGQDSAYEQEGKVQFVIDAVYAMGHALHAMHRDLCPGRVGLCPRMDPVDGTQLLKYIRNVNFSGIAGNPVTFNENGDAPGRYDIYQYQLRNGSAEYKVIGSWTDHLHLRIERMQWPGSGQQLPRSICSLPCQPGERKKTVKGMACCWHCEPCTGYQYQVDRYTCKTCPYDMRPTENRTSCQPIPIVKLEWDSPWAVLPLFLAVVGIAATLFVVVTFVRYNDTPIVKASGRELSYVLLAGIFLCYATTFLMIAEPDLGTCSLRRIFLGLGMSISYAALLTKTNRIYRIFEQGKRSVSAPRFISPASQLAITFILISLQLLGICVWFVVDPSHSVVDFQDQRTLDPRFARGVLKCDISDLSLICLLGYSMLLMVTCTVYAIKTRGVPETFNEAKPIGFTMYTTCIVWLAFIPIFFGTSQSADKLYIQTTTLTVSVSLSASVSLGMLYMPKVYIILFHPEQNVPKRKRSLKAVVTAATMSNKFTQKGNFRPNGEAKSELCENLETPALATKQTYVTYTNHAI
Chain of Cytochrome P450 2C9 (P11712 whole entry): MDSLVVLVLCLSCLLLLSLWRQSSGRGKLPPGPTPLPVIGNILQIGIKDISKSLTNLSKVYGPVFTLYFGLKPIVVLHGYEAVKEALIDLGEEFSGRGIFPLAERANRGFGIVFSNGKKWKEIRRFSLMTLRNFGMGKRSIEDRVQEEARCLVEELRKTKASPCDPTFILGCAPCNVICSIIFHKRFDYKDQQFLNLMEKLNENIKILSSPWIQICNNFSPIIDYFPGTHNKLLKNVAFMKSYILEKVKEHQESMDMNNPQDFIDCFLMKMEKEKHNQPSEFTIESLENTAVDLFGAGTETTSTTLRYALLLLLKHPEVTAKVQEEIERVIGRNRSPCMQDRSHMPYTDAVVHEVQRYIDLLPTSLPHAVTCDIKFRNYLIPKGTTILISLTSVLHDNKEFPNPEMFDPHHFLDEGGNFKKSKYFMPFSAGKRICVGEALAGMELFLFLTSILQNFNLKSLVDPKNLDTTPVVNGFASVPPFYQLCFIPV
Chain of Cytochrome P450 2D6 (P10635 whole entry): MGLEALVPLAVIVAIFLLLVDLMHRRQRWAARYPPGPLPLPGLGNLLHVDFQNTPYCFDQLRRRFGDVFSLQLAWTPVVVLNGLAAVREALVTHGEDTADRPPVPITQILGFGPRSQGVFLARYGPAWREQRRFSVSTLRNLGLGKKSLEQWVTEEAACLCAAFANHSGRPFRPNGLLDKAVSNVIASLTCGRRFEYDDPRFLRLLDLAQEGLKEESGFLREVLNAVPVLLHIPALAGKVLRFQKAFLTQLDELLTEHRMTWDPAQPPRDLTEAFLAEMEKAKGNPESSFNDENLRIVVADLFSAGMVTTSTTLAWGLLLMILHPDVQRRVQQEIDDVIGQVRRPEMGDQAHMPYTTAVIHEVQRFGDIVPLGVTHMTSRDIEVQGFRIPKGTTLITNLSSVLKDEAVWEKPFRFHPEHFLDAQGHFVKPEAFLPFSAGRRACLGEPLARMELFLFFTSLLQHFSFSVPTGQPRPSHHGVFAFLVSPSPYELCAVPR
Chain of Transitional endoplasmic reticulum ATPase (Homo sapiens, UniProt P55072) (P55072 whole entry): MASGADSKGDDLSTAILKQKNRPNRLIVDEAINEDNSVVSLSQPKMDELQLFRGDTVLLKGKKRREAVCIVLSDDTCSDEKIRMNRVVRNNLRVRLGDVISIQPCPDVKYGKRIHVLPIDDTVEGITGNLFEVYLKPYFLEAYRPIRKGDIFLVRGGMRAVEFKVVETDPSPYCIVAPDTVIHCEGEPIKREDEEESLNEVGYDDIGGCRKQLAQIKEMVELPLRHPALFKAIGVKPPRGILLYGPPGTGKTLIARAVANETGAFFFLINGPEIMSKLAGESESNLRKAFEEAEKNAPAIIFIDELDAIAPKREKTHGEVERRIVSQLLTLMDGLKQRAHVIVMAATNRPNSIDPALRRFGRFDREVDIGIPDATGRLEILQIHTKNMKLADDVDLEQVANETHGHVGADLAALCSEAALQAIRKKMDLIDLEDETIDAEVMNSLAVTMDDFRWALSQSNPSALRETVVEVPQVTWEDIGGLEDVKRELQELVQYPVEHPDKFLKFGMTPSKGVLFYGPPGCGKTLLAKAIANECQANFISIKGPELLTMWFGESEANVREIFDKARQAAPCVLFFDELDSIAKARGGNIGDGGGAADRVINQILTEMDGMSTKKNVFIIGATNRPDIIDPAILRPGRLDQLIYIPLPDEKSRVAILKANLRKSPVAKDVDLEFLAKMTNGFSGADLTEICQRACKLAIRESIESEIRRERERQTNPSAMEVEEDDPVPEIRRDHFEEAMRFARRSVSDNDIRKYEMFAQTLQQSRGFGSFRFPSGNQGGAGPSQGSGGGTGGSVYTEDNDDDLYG
Chain of Induced myeloid leukemia cell differentiation protein Mcl-1 (Q07820 whole entry): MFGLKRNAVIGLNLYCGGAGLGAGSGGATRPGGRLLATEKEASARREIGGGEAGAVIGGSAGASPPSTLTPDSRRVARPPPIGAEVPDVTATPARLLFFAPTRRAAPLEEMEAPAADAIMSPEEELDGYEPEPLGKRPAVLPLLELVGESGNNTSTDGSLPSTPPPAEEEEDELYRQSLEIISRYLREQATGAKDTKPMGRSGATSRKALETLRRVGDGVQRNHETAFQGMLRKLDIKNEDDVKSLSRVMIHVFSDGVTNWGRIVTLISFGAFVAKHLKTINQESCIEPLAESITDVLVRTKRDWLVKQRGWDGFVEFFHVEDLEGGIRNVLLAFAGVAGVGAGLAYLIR
Chain of Cytochrome P450 2C19 (P33261 whole entry): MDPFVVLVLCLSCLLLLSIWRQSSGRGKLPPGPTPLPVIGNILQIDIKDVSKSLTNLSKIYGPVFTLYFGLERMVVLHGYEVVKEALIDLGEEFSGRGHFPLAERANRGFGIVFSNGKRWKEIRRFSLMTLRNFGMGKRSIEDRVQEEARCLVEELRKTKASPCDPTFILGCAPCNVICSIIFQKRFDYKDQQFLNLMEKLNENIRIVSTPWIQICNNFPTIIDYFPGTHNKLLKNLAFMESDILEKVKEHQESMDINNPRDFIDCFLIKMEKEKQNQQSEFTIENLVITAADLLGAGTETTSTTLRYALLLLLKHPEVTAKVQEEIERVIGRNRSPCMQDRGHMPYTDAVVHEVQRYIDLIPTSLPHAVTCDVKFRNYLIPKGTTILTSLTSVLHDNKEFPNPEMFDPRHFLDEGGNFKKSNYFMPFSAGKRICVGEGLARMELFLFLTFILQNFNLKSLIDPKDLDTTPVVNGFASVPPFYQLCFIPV
Chain of Lysosomal acid glucosylceramidase (P04062 whole entry): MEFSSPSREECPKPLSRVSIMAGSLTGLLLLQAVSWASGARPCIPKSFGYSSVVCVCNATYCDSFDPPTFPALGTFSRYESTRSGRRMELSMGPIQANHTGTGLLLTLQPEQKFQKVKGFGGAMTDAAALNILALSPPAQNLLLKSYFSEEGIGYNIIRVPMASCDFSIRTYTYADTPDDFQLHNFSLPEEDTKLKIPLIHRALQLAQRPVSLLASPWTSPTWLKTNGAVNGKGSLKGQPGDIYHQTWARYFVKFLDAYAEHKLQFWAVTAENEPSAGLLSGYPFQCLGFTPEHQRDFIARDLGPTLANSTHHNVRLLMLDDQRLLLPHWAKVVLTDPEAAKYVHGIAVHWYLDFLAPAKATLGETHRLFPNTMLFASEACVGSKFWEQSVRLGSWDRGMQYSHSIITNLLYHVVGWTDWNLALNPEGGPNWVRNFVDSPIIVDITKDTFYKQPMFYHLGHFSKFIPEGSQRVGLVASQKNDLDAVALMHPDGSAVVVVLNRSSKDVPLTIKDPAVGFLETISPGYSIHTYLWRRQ

Consider `Br.Brc1ccc(C2=Nn3c(nnc3-c3cccnc3)SC2)s1`, for which the EC50 in series [1] is > 50000 nM (not active). The results for the AC50 result in series [2], in series [3] and in series [4] were “inconclusive”, 4470 nM (inconclusive) and 22400 nM (inconclusive), respectively.

As for `O=C(Nc1ccc(N2C(=O)[C@H]3CCCC[C@@H]3C2=O)c(Cl)c1)c1ccccn1`, in series [5], the EC50 is 650 nM (active).

On to `COc1cc(-c2noc(C)c2/C=C/c2ccc(N)cc2)cc(OC)c1OC`, for which the EC50 is < 100 nM (active) in series [6]; 509 nM (active) in [7]; 344 nM (active) in series [8]; 277 nM (active) in series [9]; < 100 nM (active) in series [10]; < 100 nM (active) in series [11]. Besides, the EC50 in [12] was 469 nM (inconclusive); in series [14] it was 380 nM (inconclusive); in series [15] it was 362 nM (active); in [16], 335 nM (active). Also, the IC50 in series [13] is 964 nM (active).

For the molecule `O=C(O[C@@H]1OC2COC(=O)c3cc(O)c(O)c(O)c3-c3c(cc(O)c(O)c3O)C(=O)O[C@@H]([C@H]1O)[C@@H]2O)c1cc(O)c(O)c(O)c1`, the IC50 in series [17] was > 50000 nM (not active); in series [18], 4200 nM (active); in series [19] it was 4480 nM (active); in series [20], 677 nM (active).

Values taken from ChEMBL document CHEMBL1201862, “PubChem BioAssay data set” (2004).
